From patent US20240336601A1 (Chulalongkorn University, priority 2020, published 2024)

Columns and labels:
[1] = biological target: interaction between PD-1 and PD-L1 (Homo sapiens, UniProt Q9NZQ7); test: PD-1/PD-L1 protein-protein interaction assay (ALPHA); assay type: binding; conditions: 2 nM His-tagged human PD-L1, 0.6 nM PD-1-Fc, AlphaScreen
[2] = biological target: T1, PD-1/PD-L1 interaction (Homo sapiens, UniProt Q9NZQ7); test: PD-1/PD-L1 blockage cell-based bioassay (Jurkat NFAT luciferase / CHO-PDL1 co-culture); conditions: Jurkat NFAT cells co-cultured with CHO-PDL1 cells, 6 h, luminescence
T1 construct: expressed in transfected cells
T1 sequence (Q9NZQ7 19-290): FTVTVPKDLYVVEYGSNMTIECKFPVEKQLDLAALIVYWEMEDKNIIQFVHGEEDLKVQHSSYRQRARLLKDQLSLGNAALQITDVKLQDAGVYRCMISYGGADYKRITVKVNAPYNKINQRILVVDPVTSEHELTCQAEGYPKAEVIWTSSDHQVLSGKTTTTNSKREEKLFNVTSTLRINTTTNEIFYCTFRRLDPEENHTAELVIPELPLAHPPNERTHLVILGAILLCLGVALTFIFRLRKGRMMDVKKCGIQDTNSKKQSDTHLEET

Chain of interaction between PD-1 and PD-L1 (Q9NZQ7 19-238 limits assumed): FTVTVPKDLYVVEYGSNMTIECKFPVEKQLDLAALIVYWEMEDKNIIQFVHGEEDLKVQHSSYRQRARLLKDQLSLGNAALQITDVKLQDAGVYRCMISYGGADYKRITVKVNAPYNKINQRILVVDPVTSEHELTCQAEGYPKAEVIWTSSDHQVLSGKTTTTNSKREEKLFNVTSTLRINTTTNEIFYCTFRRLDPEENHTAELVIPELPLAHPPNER

IC50 [1] [nM]	IC50 [2] [nM]	SMILES
< 1	< 200	COc1cc(-n2ncc3c(-c4cccc(-c5nc6cc(CN(C)C78CCC(C(=O)O)(CC7)CC8)cc(C#N)c6o5)c4C)cccc32)cc(OC)c1CN1CC[C@@H](O)C1 [Example 157, (R)-4-(((7-cyano-2-(3-(1-(4-((3-hydroxypyrrolidin-1-yl)methyl)-3,5-dimethoxyphenyl)-1H-indazol-4-yl)-2-methylphenyl)benzo[d]oxazol-5-yl)methyl)(methyl)amino)bicyclo[2.2.2]octane-1-carboxylic acid]
< 1	< 200	COc1cc(-n2ncc3c(-c4cccc(Nc5nc(C(F)F)nc6cc(CN7CC[C@@H](O)C7)cnc56)c4C)cccc32)cc(OC)c1CN1CC[C@@](C)(C(=O)O)C1 [Example 158, (R)-1-(4-(4-(3-((2-(difluoromethyl)-7-(((R)-3-hydroxypyrrolidin-1-yl)methyl)pyrido[3,2-d]pyrimidin-4-yl)amino)-2-methylphenyl)-1H-indazol-1-yl)-2,6-dimethoxybenzyl)-3-methylpyrrolidine-3-carboxylic acid]
< 1	201 to 2000	COc1cc(-n2ncc3c(-c4cccc(Nc5nc(C(F)F)nc6cc(CN7CC[C@@H](O)C7)cnc56)c4C)cccc32)cc(OC)c1CN1CCC(C(=O)O)CC1 [Example 163, (R)-1-(4-(4-(3-((2-(difluoromethyl)-7-((3-hydroxypyrrolidin-1-yl)methyl)pyrido[3,2-d]pyrimidin-4-yl)amino)-2-methylphenyl)-1H-indazol-1-yl)-2,6-dimethoxybenzyl)piperidine-4-carboxylic acid]
< 1	< 200	COc1cc(-c2cccc(-c3cccc4c3cnn4-c3cc(OC)c(CN4CC[C@@H](O)C4)c(OC)c3)c2Cl)cc(F)c1CN(C)C12CCC(C(=O)O)(CC1)CC2 [Example 164, (R)-4-(((2′-chloro-3-fluoro-β′-(1-(4-((3-hydroxypyrrolidin-1-yl)methyl)-3,5-dimethoxyphenyl)-1H-indazol-4-yl)-5-methoxy-[1,1′-biphenyl]-4-yl)methyl)(methyl)amino)bicyclo[2.2.2]octane-1-carboxylic acid]
< 1	< 200	COc1cc(-n2ncc3c(-c4cccc(Nc5nc(C(F)F)nc6cc(CN7CC[C@@H](C(=O)O)C7)cnc56)c4C)cccc32)cc(OC)c1CN1CC[C@@H](O)C1 [Example 165, (R)-1-((2-(difluoromethyl)-4-((3-(1-(4-(((R)-3-hydroxypyrrolidin-1-yl)methyl)-3,5-dimethoxyphenyl)-1H-indazol-4-yl)-2-methylphenyl)amino)pyrido[3,2-d]pyrimidin-7-yl)methyl)pyrrolidine-3-carboxylic acid]
< 1	< 200	COc1cc(-n2ncc3c(-c4cccc(Nc5nc(C(F)F)nc6cc(CN7CC[C@@H](O)C7)cnc56)c4C)cccc32)cc(OC)c1CN(C)C12CCC(C(=O)O)(CC1)CC2 [Example 166, (R)-4-((4-(4-(3-((2-(difluoromethyl)-7-((3-hydroxypyrrolidin-1-yl)methyl)pyrido[3,2-d]pyrimidin-4-yl)amino)-2-methylphenyl)-1H-indazol-1-yl)-2,6-dimethoxybenzyl)(methyl)amino)bicyclo[2.2.2]octane-1-carboxylic acid]

The next lines start with the molecule.

SMILES	IC50 [1] [nM]	IC50 [2] [nM]
COc1cc(-n2ncc3c(-c4cccc(-c5ccc(CN6CC(C(C)(C)O)C6)c(OC)n5)c4Cl)cccc32)ncc1CNCCO [Example 142, 2-(1-((6-(2-chloro-3-(1-(5-(((2-hydroxyethyl)amino)methyl)-4-methoxypyridin-2-yl)-1H-indazol-4-yl)phenyl)-2-methoxypyridin-3-yl)methyl)azetidin-3-yl)propan-2-ol]	< 1	< 200
CCOC(=O)[C@@H](NCc1c(OC)cc(-n2ncc3c(-c4cccc(-c5ccc(CN6CC7(CNC(=O)C7)C6)c(OC)n5)c4Cl)cccc32)cc1OC)[C@@H](C)O [Example 145, Ethyl (4-(4-(2-chloro-3-(6-methoxy-5-((7-oxo-2,6-diazaspiro[3.4]octan-2-yl)methyl)pyridin-2-yl)phenyl)-1H-indazol-1-yl)-2,6-dimethoxybenzyl)-L-threoninate]	1 to 10	201 to 2000
CCOC(=O)[C@@H](NCc1c(OC)cc(-n2ncc3c(-c4cccc(-c5ccc(CNC[C@@H]6CCC(=O)N6)c(OC)n5)c4Cl)cccc32)cc1OC)[C@@H](C)O [Example 146, (2S,3R)-ethyl 2-((4-(4-(2-chloro-3-(6-methoxy-5-(((((S)-5-oxopyrrolidin-2-yl)methyl)amino)methyl)pyridin-2-yl)phenyl)-1H-indazol-1-yl)-2,6-dimethoxybenzyl)amino)-3-hydroxybutanoate]	< 1	201 to 2000
CCOC(=O)[C@@H](CO)NCc1c(OC)cc(-n2ncc3c(-c4cccc(-c5ccc(CNC[C@@H]6CCC(=O)N6)c(OC)n5)c4Cl)cccc32)cc1OC [Example 147, Ethyl (2R)-2-[({4-[4-(2-chloro-3-{6-methoxy-5-[({[(2S)-5-oxopyrrolidin-2-yl]methyl)amino)methyl}pyridin-2-yl}phenyl)-1H-indazol-1-yl]-2,6-dimethoxyphenyl}methyl)amino]-3-hydroxypropanoate]	1 to 10	201 to 2000
COc1cc(-n2ncc3c(-c4cccc(-c5ccc(CN6CC7(CNC(=O)C7)C6)c(OC)n5)c4Cl)cccc32)cc(OC)c1CN1CC(C(=O)O)C1 [Example 150, 1-(4-(4-(2-chloro-3-(6-methoxy-5-((7-oxo-2,6-diazaspiro[3.4]octan-2-yl)methyl)pyridin-2-yl)phenyl)-1H-indazol-1-yl)-2,6-dimethoxybenzyl)azetidine-3-carboxylic acid]	< 1	< 200
CCOC(=O)C1(C)CN(Cc2c(OC)cc(-n3ncc4c(-c5cccc(-c6ccc(CNC[C@@H]7CCC(=O)N7)c(OC)n6)c5Cl)cccc43)cc2OC)C1 [Example 151, ethyl (S)-1-(4-(4-(2-chloro-3-(6-methoxy-5-((((5-oxopyrrolidin-2-yl)methyl)amino)methyl)pyridin-2-yl)phenyl)-1H-indazol-1-yl)-2,6-dimethoxybenzyl)-3-methylazetidine-3-carboxylate]	1 to 10	< 200
COc1cc(-n2ncc3c(-c4cccc(-c5nc6cc(CN7CC[C@@H](C(=O)O)C7)cc(C#N)c6o5)c4C)cccc32)cc(OC)c1CN1CC[C@@H](O)C1 [Example 154, (R)-1-((7-cyano-2-(3-(1-(4-(((R)-3-hydroxypyrrolidin-1-yl)methyl)-3,5-dimethoxyphenyl)-1H-indazol-4-yl)-2-methylphenyl)benzo[d]oxazol-5-yl)methyl)pyrrolidine-3-carboxylic acid]	< 1	< 200
COc1cc(-n2ncc3c(-c4cccc(-c5nc6cc(CN7CC[C@@H](C(=O)O)C7)cc(C#N)c6o5)c4C)cccc32)cc(OC)c1CN1CC[C@H](O)C1 [Example 155, (R)-1-((7-cyano-2-(3-(1-(4-(((S)-3-hydroxypyrrolidin-1-yl)methyl)-3,5-dimethoxyphenyl)-1H-indazol-4-yl)-2-methylphenyl)benzo[d]oxazol-5-yl)methyl)pyrrolidine-3-carboxylic acid]	< 1	< 200
COc1cc(-n2ncc3c(-c4cccc(-c5nc6cc(CN(C)C78CCC(C(=O)O)(CC7)CC8)cc(C#N)c6o5)c4C)cccc32)cc(OC)c1CN1CC(O)C1 [Example 159, 4-(((7-cyano-2-(3-(1-(4-((3-hydroxyazetidin-1-yl)methyl)-3,5-dimethoxyphenyl)-1H-indazol-4-yl)-2-methylphenyl)benzo[d]oxazol-5-yl)methyl)(methyl)amino)bicyclo[2.2.2]octane-1-carboxylic acid]	< 1	< 200
COc1cc(-c2cccc(-c3cccc4c3cnn4-c3cc(OC)c(CN4CC5(CNC(=O)C5)C4)c(OC)c3)c2Cl)cc(F)c1CN(C)C12CCC(C(=O)O)(CC1)CC2 [Example 160, 4-(((2′-chloro-3′-(1-(3,5-dimethoxy-4-((7-oxo-2,6-diazaspiro[3.4]octan-2-yl)methyl)phenyl)-1H-indazol-4-yl)-3-fluoro-5-methoxy-[1,1′-biphenyl]-4-yl)methyl)(methyl)amino)bicyclo[2.2.2]octane-1-carboxylic acid]	< 1	< 200
